Experimental data as given in US8815935B2, “Inhibitors of protein prenyltransferases” (The Regents of the University of California, priority 2008, dated 2014).
“Also recorded” adds a separate entry of the source.

Legend:
[1] = system: Rap1 geranylgeranylation in NIH3T3 cells; test: Unprenylated Rap1 immunoblot in NIH3T3 cells; type: cell-based; details: 48 hours
Experimental: The inhibition of GGTase-I catalyzed protein geranylgeranylation was assessed by examining the accumulation of unprenylated Rap1. To measure the level of unprenylated Rap1, cells were cultured in DMEM plus 10% (v/v) FBS overnight, and then DMSO or appropriate inhibitors were added. Incubation was continued for 48 hours. The cells were harvested and lysed in lysis buffer (20 mM Tris-HCl, pH 7.5, 150 mM NaCl, 1 mM EDTA, 1% NP-40 and 1× Protease Inhibitor Cocktail). Whole cell lysates of NIH3T3 cells were electrophoresed on a 12% SDS-PAGE, transferred to nitrocellulose membranes and immunoblotted with the antibody against unprenylated form of Rap1 (Santa Cruz Biotechnology catalog number sc-1482, goat), total-Rap1 (Santa Cruz: sc-65) or actin (Sigma: A4700). Actin was used as a loading control.

[2] = target: T1, GGTase-I (Rattus norvegicus, UniProt P53610+Q04631); test: In vitro GGTase-I enzyme assay (IC50, kinetics); type: biochemical
T1 construct: purchased JENA BIOSCIENCE
Summary of the method: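 Rat GGTase-I (50 nM) with 0.5 μM [3H]-GGPP and 2 μM MBP-RhoA in Tris-HCl pH 7.5, MgCl2, ZnCl2, DTT, 2.5% DMSO, 10 min at 30 °C; radiolabel incorporation by TCA filter binding and scintillation. Kinetics: 5 min reactions varying GGPP or RhoA at fixed other components.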

[3] = target: T2, FTase (Rattus norvegicus, UniProt Q02293+Q04631); test: In vitro FTase assay (K-Ras4B substrate, [3H]FPP); type: biochemical; details: concentration increased to 50,000 nM
T2 construct: purchased JENA BIOSCIENCE
Text: To further characterize the pilot library, inhibitors of protein farnesyltransferase were identified. This was accomplished by using K-Ras4B as a substrate protein, tritiated farnesylpyrophosphate ([^3H]FPP) and protein farnesyltransferase. See Finegold, A. A., Johnson, D. I., Farnsworth, C. C., Gelb, M. H., Judd, S. R., Glomset, J. A. and Tamanoi, F. (1991) Protein geranylgeranyltransferase of Saccharomyces cerevisiae is specific for Cys-Xaa-Xaa-Leu motif and requires the CDC43 gene product but not the DPR1 gene product. Proc. Natl. Acad. Sci. USA 88, 4448-4452. […] On the other hand, the structure of the compounds P1-F11, P2-B7 and P2-E9 resemble those of GGTIs. The FTI P1-F11 resembles the GGTI P1-F10, while the FTI P2-B7 resembles the GGTI P2-C10. The FTI P2-E9 is similar to the GGTI P2-G3. Similarity of some GGTI and FTI compounds may point to common structural features between the two closely related enzymes. As described before, FTase and GGTase I have similar three-dimensional structures and a shared alpha subunit. On the other hand, FTase specific inhibitors may recognize a region(s) that is different between the two enzymes.
Examples 2-8 illustrate assays of bioactivity. These methods are applicable to the compounds of the present invention having the particular linkers and scaffolds described herein, to determine their activity. […] Varying concentrations of the two compounds were added to each enzyme reaction. The FTase (protein farnesyltransferase) assay was carried out using K-Ras4B as a substrate protein, FTase (JENA Bioscience, San Diego, Calif.) and [3H]farnesyl pyrophosphate. Incubation was for 30 min at 37° C.
GGTase-I and FTase activities were determined by following the incorporation of radiolabeled isoprenoid [^3H]-geranylgeranyl or [^3H]-farnesyl into substrate proteins. FTase or GGTase-I (50 nM) were used to initiate reactions containing 0.4 μM of [^3H]-FPP or 0.5 μM of [^3H]-GGPP and 2 μM of MBP-tagged substrates (K-Ras4B for FTase; RhoA for GGTase-I) in 20 μl of buffer {50 mM Tris-HCl (pH 7.5), 10 mM MgCl2, […] and 5 mM DTT}. Inhibitors were added at the indicated concentrations. The final DMSO concentration was 2.5% for all samples.
Reactions were carried out for 10 min at 30° C. The reaction mixture was spotted onto a filter paper, treated with 10% trichloroacetic acid (TCA) followed by ethanol and acetone washing. The filter was counted using a scintillation counter. Kinetic assays in which the GGPP concentration was varied employed fixed concentrations of GGTase-I and RhoA, and reactions were carried out for 5 min. Similarly, fixed concentrations of GGTase-I and GGPP were used when the amount of RhoA was varied.

[4] = target: T3, RabGGTase (Rattus norvegicus, UniProt Q08602+Q08603); test: In vitro RabGGTase (GGTase-II) assay with REP-1; type: biochemical; details: up to 10,000 nM
T3 construct: purchased JENA BIOSCIENCE
T3 sequence (Q08602 1-567): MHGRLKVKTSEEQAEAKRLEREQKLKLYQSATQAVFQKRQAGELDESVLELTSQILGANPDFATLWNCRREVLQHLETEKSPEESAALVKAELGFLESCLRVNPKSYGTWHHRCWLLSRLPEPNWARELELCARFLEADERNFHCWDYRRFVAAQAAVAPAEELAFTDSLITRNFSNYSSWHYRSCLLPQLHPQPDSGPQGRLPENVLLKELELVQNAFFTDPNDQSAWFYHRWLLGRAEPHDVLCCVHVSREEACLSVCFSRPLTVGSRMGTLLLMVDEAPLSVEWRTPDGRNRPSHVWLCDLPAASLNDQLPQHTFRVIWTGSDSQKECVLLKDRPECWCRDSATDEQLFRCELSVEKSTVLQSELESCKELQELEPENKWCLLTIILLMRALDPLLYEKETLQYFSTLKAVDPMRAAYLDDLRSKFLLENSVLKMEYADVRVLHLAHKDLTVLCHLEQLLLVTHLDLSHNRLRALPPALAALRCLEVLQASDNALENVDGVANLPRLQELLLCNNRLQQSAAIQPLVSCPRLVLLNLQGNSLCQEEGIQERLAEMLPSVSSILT
T3 sequence (Q08603 1-331): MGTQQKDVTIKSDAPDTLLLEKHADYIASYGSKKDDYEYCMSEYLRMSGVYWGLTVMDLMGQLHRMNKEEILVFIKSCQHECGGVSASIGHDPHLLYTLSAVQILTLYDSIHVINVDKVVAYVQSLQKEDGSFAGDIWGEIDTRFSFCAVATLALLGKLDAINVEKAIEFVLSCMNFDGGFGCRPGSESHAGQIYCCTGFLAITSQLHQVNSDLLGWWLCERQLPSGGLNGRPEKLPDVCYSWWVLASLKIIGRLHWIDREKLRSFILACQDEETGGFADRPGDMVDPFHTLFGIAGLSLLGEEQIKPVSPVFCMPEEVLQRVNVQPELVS
Experimental: The GGTase-I assay was carried out using RhoA as a substrate protein, GGTase-I (JENA Bioscience) and [3H]geranylgeranyl pyrophosphate. Incubation was for 30 min at 37° C. GGTase-II (or RabGGTase) assay was carried out using YPTI as a substrate protein, GGTase-II (Calbiochem, San Diego, Calif.) plus REP1 (Calbiochem) and [3H]geranylgeranyl pyrophosphate. Incubation was for 30 min at 37° C. FIGS. 20D-20F show the three dimensional structure of GGTase I (D), FTsse (E) and GGTase II (F) which can be obtained from X-ray diffraction studies of protein crystals.
For RabGGTase assays, the reaction contained the following components in 20 μl; 0.625 μl of [^3H]-GGPP (0.7 μM), 25 nM RabGGTase, 0.6 μM REP-1, 0.6 μM purified Rab7 or Ypt1 protein, 40 mM HEPES (pH 7.5), 150 mM NaCl, 5 mM DTT, 3 mM MgCl2 and 0.3% CHAPS. Reactions were carried out for 20 min at 37° C. and the products were analyzed as described above for the GGTase-I reaction. Graphing and Michaelis-Menten analysis were performed using Prism version5 (GraphPad, San Diego Calif.).

[5] = system: K562 cells; test: K562 cell growth inhibition; type: cell-based, human; details: 72 hours
Summary of the method: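 Human erythroleukemia K562 cells exposed to compound for 72 hours. Cell number measured with CCK-8 and viability expressed relative to the DMSO control.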

[6] = system: H-Ras farnesylation in NIH3T3 cells; test: H-Ras mobility shift immunoblot in NIH3T3 cells; type: cell-based; details: 48 hours
Experimental: K562 cells were treated with modified compounds for 72 hours and then cell number was counted. IC50 values of cell viability relative to the DMSO were measured. […] Data represent the mean+/−S.D. of two measurements from two independent experiments. *, P<0.05 compared with the value for DMSO. […] Whole cell lysates from cells treated with DMSO, P5-H6, P61-A6, GGTI (GGTI-298), FTI (BMS-225975) or RabGGTI (P49-F6) for 48 hours were prepared and processed for immunoblot analysis using antibody against unprenylated form of Rap1 (C: upper panel), Total-Rap1 (C: middle panel), H-Ras (D: upper panel), Rab5b (E: upper panel) or actin (C, D, and E: lower panel). The immunoblots shown represent two independent experiments for each treatment.
This was examined by using a farnesylated protein H-Ras.

Row | Structure (SMILES) | appearance of the unprenylated (unprocessed) Rap1 band [1] | appearance of the unprenylated Rap1 band at 2.5 μM ([1]; 2.5 μM) | specificity among GGTase-I, FTase and GGTase-II ([2]; FIGS. 20A-20C, varying concentrations) | Ki ([2]; Michaelis-Menten analysis) | IC50 ([2]; Tables 5, 14, read-out: In vitro (enzyme assay) IC50, GGTase I) | mode of GGTase-I inhibition with respect to GGPP ([2]; varying GGPP, fixed RhoA) | mode of GGTase-I inhibition with respect to the protein substrate (RhoA) ([2]; varying RhoA, fixed GGPP) | inhibition of FTase activity [3] | inhibition of RabGGTase [4] | inhibition of proliferation of K562 cells ([5]; FIG. 23) | IC50 ([5]; Homo sapiens, K562, FIG. 36A, read-out: IC50, inhibition of proliferation of K562 cells) | mobility shift of H-Ras (protein farnesylation) [6]
1 | Cc1ccccc1S(=O)(=O)N1[C@@H](c2ccc(Cl)cc2)C(C(=O)O)=C[C@H]1C(C)(C)C (relative stereo) [P5-H6] | in a dose dependent manner; also recorded: inhibits Rap1 geranylgeranylation | not seen | specifically inhibit GGTase I | 0.408 ± 0.032 µM | 0.466 µM | do not compete with GGPP; also recorded: uncompetitive inhibitors | compete with a substrate protein; also recorded: competitive inhibitors | no significant inhibition | little inhibition | inhibit the growth of the K562 cells | 20 µM | –
2 | Cn1cncc1CN1C[C@@H](Cc2ccccc2)N(S(=O)(=O)c2cccs2)Cc2cc(C#N)ccc21 [BMS-225975] | – | – | – | – | – | – | – | – | – | – | – | slowed the mobility
